Data published in patent US20230390268A1 (priority 2022, published 2023).
Entries after “also recorded” stand apart in the source; their conditions may differ. Like-named read-outs stand apart in the source and are kept apart here.

Key:
[1] = system: Vesicular stomatitis virus (VSV); assay type: cell-based
IL8 = IL8 transcript levels by qPCR in SARS-CoV-2 infected Calu3 cells; assay type: cell-based, human; conditions: Calu3 cells infected with SARS-CoV-2
TNFα = TNFα transcript levels by qPCR in SARS-CoV-2 infected Calu3 cells; assay type: cell-based, human; conditions: Calu3 cells infected with SARS-CoV-2
IL6 = IL6 transcript levels by qPCR in SARS-CoV-2 infected Calu3 cells; assay type: cell-based, human; conditions: Calu3 cells infected with SARS-CoV-2
SARS-CoV-2 [2] = assay type: cell-based
THF cells = assay: Cell viability MTT assay; conditions: 50 μM, 24 hr, compared with DMSO
HIV-1 NL4-3 GFP = assay type: cell-based
Vaccinia virus (VacV) = assay type: cell-based
[3] = system: Herpes Simplex Virus (HSV); assay type: cell-based
ASK1/p38MAPK = assay type: cell-based, human
SARS-CoV-2 [4] = assay type: cell-based; remark: listed apart in the source
SARS-CoV-2/SB3 = system: SARS-CoV-2/SB3; set-up: species or system Syrian Hamster; conditions: in vivo
Calu3 cells = assay type: cell-based, human; conditions: 1 MOI of VSV, Selonsertib 50 μM, 24 hr
autophagy = assay type: cell-based, human; conditions: Calu3 and THF cells infected with VSV, Selonsertib 50 μM, 24 hr
SARS-CoV-2 [5] = assay type: cell-based; remark: listed apart in the source
VSV [6] = assay type: cell-based
mTORC1 = assay type: cell-based, human; conditions: Calu3 and THF cells infected with VSV, Selonsertib 50 μM, 24 hr, versus DMSO+VSV
JNK = assay type: cell-based, human
HSV = assay: HSV-GFP replication in CHL-11 hamster cell line; assay type: cell-based; conditions: CHL-11 cells, HSV-GFP MOI of 1, 0.1 or 0.01, Selonsertib 25 or 50 μM, 24 h
VSV [7] = assay type: cell-based; remark: listed apart in the source

SMILES	VSV replication [1]	levels of IL8 (IL8)	levels of TNFα (TNFα)	levels of IL6 (IL6)	SARS-CoV-2 replication (SARS-CoV-2 [2])	GFP-intensity of VSV [1]	duration of effect on viral replication after aspirating drugs [1] [h]	cell viability (THF cells)	HIV-1-GFP replication (HIV-1 NL4-3 GFP)	GFP-intensity of VacV (Vaccinia virus (VacV))	GFP-intensity of HSV [3]	also measured
Cc1ccc(-n2nc(C(C)(C)C)cc2NC(=O)Nc2ccc(OCCN3CCOCC3)c3ccccc23)cc1 [BIRB, Doramapimod]	no obvious effect; also recorded: no noticeable effect	diminish	diminish	diminish	no antiviral properties							
O=C(Nc1cccc(-c2nncn2C2CC2)c1)c1cc(-n2cnc(C3CC3)c2)ccn1 [GS-444217]		diminish	diminish	diminish	drastically reduces	significantly abolish	24	healthy and safe; also recorded: no difference	abrogates replication	significantly abolish	significantly abolish	duration of effect on phosphorylation of ASK1/p38MAPK after aspirating drugs (ASK1/p38MAPK; pretreatment 24 hours, drugs aspirated prior VSV infection, Calu3 cells): 24 h
Cc1cc(F)c(C(=O)Nc2cccc(-c3nncn3C(C)C)n2)cc1-n1cnc(C2CC2)c1 [Selonsertib]	gradually decreased	diminish	diminish	diminish	drastically reduces	significantly abolish	24	healthy and safe; also recorded: no difference	abrogates replication	significantly abolish	significantly abolish	time after adding drug at which VSV replication starts to weaken [1]: 2 h; SARS-CoV-2 nucleoprotein in infected HAP1 KO cells treated or not (SARS-CoV-2 [4]): no significant difference; percentage of weight loss (SARS-CoV-2/SB3; hamster): the most; IHC staining against SARS-CoV2 nucleocapsid in the hamster lung tissue (SARS-CoV-2/SB3): dominated a spatial area of the lung tissue; SARS-CoV-2 replication in hamster tissue (SARS-CoV-2/SB3): augmented; changes in cell morphology caused by VSV replication (Calu3 cells): remarkably alleviates; also recorded: relieved; autophagy marker, LC3II (autophagy): not affected; level of SARS-CoV2 nucleocapsid (SARS-CoV-2 [5]): remarkably increased; VSV infection in HAP1 KO cells (VSV [6]): still able to swipe the leftover of VSV infection; Phosphorylation levels of p70 (S6K1) (mTORC1): not changed; duration of effect on phosphorylation of ASK1/p38MAPK after aspirating drugs (ASK1/p38MAPK): 24 h; time after adding drug at which p38MAPK phosphorylation starts to weaken (ASK1/p38MAPK): 2 h; JNK phosphorylation (JNK): reduced; antiviral effect against HSV in hamster cell line (HSV): antiviral properties; antiviral effect against VSV in hamster cell line (VSV [7]): antiviral properties
